Results reported in PubChem BioAssay (NCI).
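48-hour exposure; five concentrations; linearly interpolated endpoints. The concentration for 50% growth inhibition is given as GI50. TGI denotes the concentration required for complete inhibition of growth.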

Key:
Assay in all cases: DTP human tumour cell line panel, 48 h
SF-539 CNS = test system: SF-539 CNS
SR leukemia = test system: SR leukemia
HS 578T breast = test system: HS 578T breast
ACHN renal = test system: ACHN renal
UO-31 renal = test system: UO-31 renal
TK-10 renal = test system: TK-10 renal
NCI/ADR-RES ovarian = test system: NCI/ADR-RES ovarian
HCT-15 colon = test system: HCT-15 colon
DU-145 prostate = test system: DU-145 prostate
OVCAR-5 ovarian = test system: OVCAR-5 ovarian
OVCAR-3 ovarian = test system: OVCAR-3 ovarian
BT-549 breast = test system: BT-549 breast
SK-MEL-28 melanoma = test system: SK-MEL-28 melanoma
MDA-MB-435 = test system: MDA-MB-435
IGROV1 ovarian = test system: IGROV1 ovarian
MDA-MB-231 breast = test system: MDA-MB-231 breast
CCRF-CEM leukemia = test system: CCRF-CEM leukemia
UACC-257 melanoma = test system: UACC-257 melanoma
COLO 205 colon = test system: COLO 205 colon
SK-MEL-2 melanoma = test system: SK-MEL-2 melanoma
SF-268 CNS = test system: SF-268 CNS
SK-OV-3 ovarian = test system: SK-OV-3 ovarian
KM12 colon = test system: KM12 colon
MOLT-4 leukemia = test system: MOLT-4 leukemia
OVCAR-4 ovarian = test system: OVCAR-4 ovarian
HCC-2998 colon = test system: HCC-2998 colon
SNB-19 CNS = test system: SNB-19 CNS
NCI-H522 lung = test system: NCI-H522 lung
NCI-H460 lung = test system: NCI-H460 lung
HL-60(TB) leukemia = test system: HL-60(TB) leukemia
HOP-62 NSCLC = test system: HOP-62 NSCLC
SF-295 CNS = test system: SF-295 CNS
CAKI-1 renal = test system: CAKI-1 renal
OVCAR-8 ovarian = test system: OVCAR-8 ovarian
MALME-3M melanoma = test system: MALME-3M melanoma
UACC-62 melanoma = test system: UACC-62 melanoma
SW-620 colon = test system: SW-620 colon
RXF 393 renal = test system: RXF 393 renal
HT29 colon = test system: HT29 colon
K-562 leukemia = test system: K-562 leukemia
M14 melanoma = test system: M14 melanoma
SN12C renal = test system: SN12C renal
A549 NSCLC = test system: A549 NSCLC
HCT-116 colon = test system: HCT-116 colon
NCI-H226 lung = test system: NCI-H226 lung
NCI-H23 lung = test system: NCI-H23 lung
T-47D breast = test system: T-47D breast
LOX IMVI melanoma = test system: LOX IMVI melanoma
MCF7 breast = test system: MCF7 breast
RPMI-8226 leukemia = test system: RPMI-8226 leukemia
HOP-92 NSCLC = test system: HOP-92 NSCLC
U251 CNS = test system: U251 CNS
786-0 renal = test system: 786-0 renal
SK-MEL-5 melanoma = test system: SK-MEL-5 melanoma
A498 renal = test system: A498 renal
SNB-75 CNS = test system: SNB-75 CNS
EKVX NSCLC = test system: EKVX NSCLC
PC-3 prostate = test system: PC-3 prostate

O=C(O)CCCCC(CCSCc1ccccc1)SCc1ccccc1 (stereo unspecified)
GI50 (SF-539 CNS): 66.5 µM | TGI (SF-539 CNS): > 100 µM | GI50 (SR leukemia): 36.1 µM | TGI (SR leukemia): > 100 µM | GI50 (HS 578T breast): 50.3 µM | TGI (HS 578T breast): > 100 µM | GI50 (ACHN renal): 51.1 µM | TGI (ACHN renal): > 100 µM | GI50 (UO-31 renal): 30.9 µM | TGI (UO-31 renal): > 100 µM | GI50 (TK-10 renal): > 73.4 µM | TGI (TK-10 renal): > 100 µM | GI50 (NCI/ADR-RES ovarian): 48.6 µM | TGI (NCI/ADR-RES ovarian): > 100 µM | GI50 (HCT-15 colon): 33.1 µM | TGI (HCT-15 colon): > 100 µM | GI50 (DU-145 prostate): > 71.2 µM | TGI (DU-145 prostate): > 100 µM | GI50 (OVCAR-5 ovarian): > 100 µM | TGI (OVCAR-5 ovarian): > 100 µM | GI50 (OVCAR-3 ovarian): 37.9 µM | TGI (OVCAR-3 ovarian): > 69.9 µM | GI50 (BT-549 breast): 50.8 µM | TGI (BT-549 breast): > 100 µM | GI50 (SK-MEL-28 melanoma): 45.1 µM | TGI (SK-MEL-28 melanoma): > 100 µM | GI50 (MDA-MB-435): > 73.7 µM | TGI (MDA-MB-435): > 100 µM | GI50 (IGROV1 ovarian): 42.4 µM | TGI (IGROV1 ovarian): > 100 µM | GI50 (MDA-MB-231 breast): > 66.9 µM | TGI (MDA-MB-231 breast): > 100 µM | GI50 (CCRF-CEM leukemia): 37 µM | TGI (CCRF-CEM leukemia): > 100 µM | GI50 (UACC-257 melanoma): > 67.1 µM | TGI (UACC-257 melanoma): > 100 µM | GI50 (COLO 205 colon): > 92.3 µM | TGI (COLO 205 colon): > 100 µM | GI50 (SK-MEL-2 melanoma): 27.5 µM | TGI (SK-MEL-2 melanoma): 67.6 µM | GI50 (SF-268 CNS): > 67.2 µM | TGI (SF-268 CNS): > 100 µM | GI50 (SK-OV-3 ovarian): > 88.7 µM | TGI (SK-OV-3 ovarian): > 100 µM | GI50 (KM12 colon): 35.2 µM | TGI (KM12 colon): > 100 µM | GI50 (MOLT-4 leukemia): 47 µM | TGI (MOLT-4 leukemia): > 100 µM | GI50 (OVCAR-4 ovarian): 70.2 µM | TGI (OVCAR-4 ovarian): > 100 µM | GI50 (HCC-2998 colon): 34.8 µM | TGI (HCC-2998 colon): > 100 µM | GI50 (SNB-19 CNS): 42.9 µM | TGI (SNB-19 CNS): > 100 µM | GI50 (NCI-H522 lung): 34.1 µM | TGI (NCI-H522 lung): > 100 µM | GI50 (NCI-H460 lung): 33.4 µM | TGI (NCI-H460 lung): > 100 µM | GI50 (HL-60(TB) leukemia): 46.9 µM | TGI (HL-60(TB) leukemia): > 100 µM | GI50 (HOP-62 NSCLC): 68.6 µM | TGI (HOP-62 NSCLC): > 100 µM | GI50 (SF-295 CNS): 25.8 µM | TGI (SF-295 CNS): > 74.5 µM | GI50 (CAKI-1 renal): > 77.5 µM | TGI (CAKI-1 renal): > 100 µM | GI50 (OVCAR-8 ovarian): > 63.6 µM | TGI (OVCAR-8 ovarian): > 100 µM | GI50 (MALME-3M melanoma): 87.7 µM | TGI (MALME-3M melanoma): > 100 µM | GI50 (UACC-62 melanoma): 21.5 µM | TGI (UACC-62 melanoma): 60.9 µM | GI50 (SW-620 colon): > 70 µM | TGI (SW-620 colon): > 100 µM | GI50 (RXF 393 renal): 27.3 µM | TGI (RXF 393 renal): > 100 µM | GI50 (HT29 colon): 65.3 µM | TGI (HT29 colon): > 100 µM | GI50 (K-562 leukemia): 44.5 µM | TGI (K-562 leukemia): > 100 µM | GI50 (M14 melanoma): 55.4 µM | TGI (M14 melanoma): > 100 µM | GI50 (SN12C renal): 41.4 µM | TGI (SN12C renal): > 100 µM | GI50 (A549 NSCLC): 43.5 µM | TGI (A549 NSCLC): > 100 µM | GI50 (HCT-116 colon): 37.7 µM | TGI (HCT-116 colon): > 100 µM | GI50 (NCI-H226 lung): > 71 µM | TGI (NCI-H226 lung): > 100 µM | GI50 (NCI-H23 lung): 33.5 µM | TGI (NCI-H23 lung): > 100 µM | GI50 (T-47D breast): 44 µM | TGI (T-47D breast): > 100 µM | GI50 (LOX IMVI melanoma): 48.2 µM | TGI (LOX IMVI melanoma): > 100 µM | GI50 (MCF7 breast): 58.8 µM | TGI (MCF7 breast): > 100 µM | GI50 (RPMI-8226 leukemia): 30.6 µM | TGI (RPMI-8226 leukemia): 96.7 µM | GI50 (HOP-92 NSCLC): 29.3 µM | TGI (HOP-92 NSCLC): > 81.6 µM | GI50 (U251 CNS): 47.9 µM | TGI (U251 CNS): > 100 µM | GI50 (786-0 renal): 64.2 µM | TGI (786-0 renal): > 100 µM | GI50 (SK-MEL-5 melanoma): 53.5 µM | TGI (SK-MEL-5 melanoma): > 100 µM | GI50 (A498 renal): > 38.9 µM | TGI (A498 renal): > 96.7 µM | GI50 (SNB-75 CNS): > 100 µM | TGI (SNB-75 CNS): > 100 µM | GI50 (EKVX NSCLC): 40.3 µM | TGI (EKVX NSCLC): > 100 µM | GI50 (PC-3 prostate): 49.1 µM | TGI (PC-3 prostate): > 100 µM
